Data from patent publication US7163946B2 (Ligand Pharmaceuticals Incorporated, priority 2002, dated 2007).

Experiments:
[1] = target: T1, human estrogen receptor (hER) (Homo sapiens, UniProt P03372); experiment: hER cotransfection assay (potency ratio to hPR); type: cell-based; settings: receptor-selectivity potency ratio, cotransfection assays
T1 sequence (P03372 1-595): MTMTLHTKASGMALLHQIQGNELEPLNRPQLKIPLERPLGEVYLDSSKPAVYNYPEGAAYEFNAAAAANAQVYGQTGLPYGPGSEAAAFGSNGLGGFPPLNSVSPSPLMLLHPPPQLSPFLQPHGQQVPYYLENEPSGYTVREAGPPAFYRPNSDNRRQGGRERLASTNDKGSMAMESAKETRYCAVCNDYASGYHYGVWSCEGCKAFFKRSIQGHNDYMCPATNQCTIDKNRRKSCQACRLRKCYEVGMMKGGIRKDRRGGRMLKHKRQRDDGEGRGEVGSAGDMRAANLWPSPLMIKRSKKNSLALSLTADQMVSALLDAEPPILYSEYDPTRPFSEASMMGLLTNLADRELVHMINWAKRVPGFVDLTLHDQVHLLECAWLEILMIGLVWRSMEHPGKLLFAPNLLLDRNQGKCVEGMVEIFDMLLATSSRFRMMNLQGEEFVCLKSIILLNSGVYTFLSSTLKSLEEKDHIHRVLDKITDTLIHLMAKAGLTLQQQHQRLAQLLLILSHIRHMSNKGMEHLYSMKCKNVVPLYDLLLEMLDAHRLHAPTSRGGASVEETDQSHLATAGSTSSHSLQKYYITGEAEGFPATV
Description: (§1) Antagonist efficacy was determined as a function (%) of maximal inhibition of a reference agonist at EC50 concentration. All the cotransfection experiments were carried out in 96-well plates by automation (Beckman Biomomek automated workstation).

hPR-A = target: T2, hPR-A (Homo sapiens, UniProt P06401); experiment: Receptor competitive binding assay; settings: read-out: PR binding Ki
T2 sequence (P06401 1-769 isoform P06401-2): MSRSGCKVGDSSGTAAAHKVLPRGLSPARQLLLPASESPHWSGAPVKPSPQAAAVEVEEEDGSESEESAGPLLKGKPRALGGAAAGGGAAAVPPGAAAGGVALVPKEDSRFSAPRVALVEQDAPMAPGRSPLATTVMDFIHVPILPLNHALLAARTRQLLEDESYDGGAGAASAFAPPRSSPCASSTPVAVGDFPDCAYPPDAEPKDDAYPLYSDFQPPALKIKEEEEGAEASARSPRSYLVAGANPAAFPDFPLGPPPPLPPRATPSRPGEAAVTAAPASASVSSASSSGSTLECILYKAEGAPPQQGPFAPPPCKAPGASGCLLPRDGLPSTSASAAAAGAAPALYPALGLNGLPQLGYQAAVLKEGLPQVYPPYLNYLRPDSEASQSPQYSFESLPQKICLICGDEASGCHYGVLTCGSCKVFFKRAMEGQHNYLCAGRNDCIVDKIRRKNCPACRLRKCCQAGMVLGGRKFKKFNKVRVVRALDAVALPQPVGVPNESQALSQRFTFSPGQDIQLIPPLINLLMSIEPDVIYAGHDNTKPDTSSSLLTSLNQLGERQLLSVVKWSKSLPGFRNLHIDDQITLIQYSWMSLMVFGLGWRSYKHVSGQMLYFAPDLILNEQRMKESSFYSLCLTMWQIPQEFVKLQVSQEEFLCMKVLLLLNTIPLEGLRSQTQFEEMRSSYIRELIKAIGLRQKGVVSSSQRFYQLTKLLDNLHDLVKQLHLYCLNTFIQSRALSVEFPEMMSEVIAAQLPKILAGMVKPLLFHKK

[2] = target: T3, human androgen receptor (hAR) (Homo sapiens, UniProt P10275); experiment: hAR cotransfection assay (potency ratio to hPR); type: cell-based; settings: receptor-selectivity potency ratio, cotransfection assays
T3 sequence (P10275 1-920): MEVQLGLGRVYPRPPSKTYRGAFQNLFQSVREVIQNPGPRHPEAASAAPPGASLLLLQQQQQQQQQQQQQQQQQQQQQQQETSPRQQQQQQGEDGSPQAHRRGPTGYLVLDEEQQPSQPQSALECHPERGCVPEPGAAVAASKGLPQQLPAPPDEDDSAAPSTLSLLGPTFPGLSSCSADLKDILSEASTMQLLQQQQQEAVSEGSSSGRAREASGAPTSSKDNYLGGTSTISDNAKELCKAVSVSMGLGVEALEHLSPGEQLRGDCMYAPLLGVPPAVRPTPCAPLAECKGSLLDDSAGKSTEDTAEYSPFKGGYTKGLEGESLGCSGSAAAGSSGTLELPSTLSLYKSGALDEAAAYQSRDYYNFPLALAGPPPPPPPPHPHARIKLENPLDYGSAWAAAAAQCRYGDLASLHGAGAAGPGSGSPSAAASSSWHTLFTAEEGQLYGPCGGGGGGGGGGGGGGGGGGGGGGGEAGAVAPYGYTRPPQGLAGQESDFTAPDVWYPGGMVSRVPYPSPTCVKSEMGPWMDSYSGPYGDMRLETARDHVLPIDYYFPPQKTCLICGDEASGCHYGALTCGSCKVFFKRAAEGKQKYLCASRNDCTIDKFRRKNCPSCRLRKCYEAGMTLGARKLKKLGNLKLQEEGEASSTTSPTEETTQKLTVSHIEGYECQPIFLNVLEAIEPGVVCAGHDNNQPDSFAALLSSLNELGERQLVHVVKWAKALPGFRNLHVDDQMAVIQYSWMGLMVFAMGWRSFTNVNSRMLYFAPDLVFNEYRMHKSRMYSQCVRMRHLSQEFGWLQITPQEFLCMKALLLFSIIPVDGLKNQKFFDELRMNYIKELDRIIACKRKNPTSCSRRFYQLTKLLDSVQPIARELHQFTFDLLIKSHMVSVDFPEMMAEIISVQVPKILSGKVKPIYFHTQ
Description: as §1

SMILES: CC1=CC(C)(C)Nc2ccc3c(c21)/C(=C/c1ccsc1)Oc1c(F)cc(F)cc1-3 [Compound 30, 7,9-difluoro-5(Z)-(3-thienylmethylidene)-1,2-dihydro-2,2,4-trimethyl-5H-chromeno[3,4-f]quinoline]
- hER EC50 or IC50/hPR EC50 [1]: >1000
- Ki (hPR-A): 4.5 nM
- hAR EC50 or IC50/hPR EC50 [2]: 377
